We go through 9 compounds from US20210163404A1, “NOVEL UREA COMPOUNDS AND BIOISOSTERES THEREOF AND THEIR USE FOR TREATING INFLAMMATION AND INFLAMMATION-RELATED PATHOLOGIES” (UNIVERSITÉ LAVAL, priority 2017, published 2021).

Data set [1] has as its system HaCaT keratinocyte cell line. Nature of the data set: Antiproliferative activity (NCI procedure, sulforhodamine B), HaCaT. It counts as cell-based, human. Conditions: Homo sapiens, HaCaT, 48 h; for GI50: Table 2; for IC50: Table 6, unit inferred, tested 781 nM to 100 μM. Summed up: (§1)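 Cells seeded in DMEM, grown 24 h at 37 °C, then exposed 48 h to serial dilutions from 100 μM to 781 nM (DMSO <0.5%). TCA fixation, sulforhodamine B staining, absorbance at 530-568 nm; growth inhibition relative to plates fixed on treatment day. At least two experiments in triplicate.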

Data set [2] relates to HaCaT cells. Put plainly: Cell cycle analysis by flow cytometry. It is filed as cell-based, human. Particulars: for Cell cycle progression G0-G1 / Cell cycle progression G2-M / Cell cycle progression S: 10 μM, 24 h; for effect on cell cycle progression: in words. The method, then: The effect of compounds 3a-b, 4e, 5b-c, 6a and 6e on cell cycle progression was subsequently assessed using a flow cytometer in accordance with established experimental protocols to evaluate any potential drug toxicity at specific phases of the cell cycle (Table 3).
HaCaT cells (2.5×10^5) were incubated with compounds 3a-b, 4e, 5b-c, 6a and 6e and curcumin (10 μM) over a period of 24 h. The cells were subsequently trypsinized, washed with PBS, resuspended in PBS (250 μL), fixed by the addition of ice-cold EtOH (750 μL) under agitation and stored at −20° C. until analysis. Prior to FACS analysis, cells were washed with PBS and resuspended in PBS (500 μL) containing 4′,6′-diamidino-2-phenylindole (DAPI) (2 μg/mL). The cell cycle was analyzed using an LSR II flow cytometer (BD Biosciences, Franklin Lakes, N.J.).
A general note: In flow cytometry, cells or beads pass a laser one at a time.

Data set [3] deals with A549 adenocarcinoma alveolar epithelial cancer cells. Nature of the data set: Antiproliferative activity (NCI procedure, sulforhodamine B), A549. It counts as cell-based, human. Conditions: Homo sapiens, A549, 48 h; for GI50: Table 2; for IC50: Table 6, unit inferred, tested 781 nM to 100 μM. Summed up:
as §1

Data set [4] deals with HT-29 colon adenocarcinoma cells. Nature of the data set: Antiproliferative activity (NCI procedure, sulforhodamine B), HT-29. It is filed as cell-based, human. Conditions: Homo sapiens, HT-29, 48 h; for GI50: Table 2; for IC50: Table 6, unit inferred, tested 781 nM to 100 μM. The method, boiled down: as §1
Data set [5] deals with HDFn neonatal dermal fibroblast cell line. Put plainly: Antiproliferative activity (NCI procedure, sulforhodamine B), HDFn. Particulars: Homo sapiens, Fibroblast, 48 h; for GI50: Table 2; for IC50: Table 6, unit inferred, tested 781 nM to 100 μM. It is filed as cell-based, human. The method, boiled down: as §1
The test system of data set [6] is IL-6. Nature of the data set: IL-6 expression in HaCaT cells stimulated with IL-17A and TNFα (ELISA). Conditions: for Expression of IL-6, HaCaT: 10 μM solutions, HaCaT stimulated with IL-17A and TNFα, mean of five experiments in duplicate; for inhibitory effect on IL-6 expression in HaCaT cells: 10 μM, stimulated with IL-17A and TNFα, in words. It counts as cell-based, human. An excerpt: The effect of compounds 3a-b, 4a-e, 5a-e and 6a-e on the expression of IL-6 was subsequently assessed using the HaCaT spontaneously transformed aneuploid immortal keratinocyte cell line, stimulated by the addition of IL-17A and TNFα in the culture medium (Table 1). Curcumin and ibuprofen were used as known IL-6 expression inhibitors. DMSO was used for solubilizing the drugs. […] Indeed, the inhibitory effect of these molecules was at least equivalent to that of curcumin [27] and ibuprofen, both recognized as anti-inflammatory drugs. The inhibitory effect of the substituted phenyl cycloalkylureas in accordance with an embodiment of the present disclosure on proinflammatory cytokines was also found at the mRNA level. Indeed, the mRNAs of the cytokines IL-6 and TNF-α as well as the mRNA of the chemokine IL-8 were lowered in TNF-α/IL-17A-stimulated HaCaT cells. Similar results were obtained in THP-1 cells stimulated with LPS where treatments with CHEU and 4e diminished the mRNA levels of the cytokines IL-1B, IL-6 and TNF-α in addition to the mRNA levels of the chemokine IL-8. It is surmised that the anti-inflammatory mechanism of action of the compounds of the present disclosure is likely mediated, at least in part, by modulating the phosphorylation state of the MAP kinase p38. […] Addition of a compound in accordance with an embodiment of the present disclosure, prior to stimulation with the aforementioned cytokines, decreases the level of p-p38 at 30-60 minutes post-stimulation. This diminution in p-p38 levels destabilizes the mRNAs of pro-inflammatory cytokines, non-limiting examples of which include TNF-α and IL-6. Moreover, it is surmised that the effect of the compounds of the present disclosure on p-p38 is potentially mediated by the activation of the phosphatase named DUSP1.
HaCaT cells (1×10^5) were suspended in DMEM culture media (500 μL) and incubated for 24 h in 24-well microtiter plates at 37° C. in a moisture-saturated atmosphere containing 5% CO2. Compounds were solubilized in DMSO and diluted in fresh DMEM. The compound (500 μL) was then added to the cell medium to obtain a final concentration of […] and the cells incubated over a period of 1 hour. In the meantime, IL-17α (200 ng/mL) and TNFα (20 ng/mL) (PeproTech, Rocky Hill, N.J.) were added to the drug solution in DMEM. Following the initial incubation of the cells, the culture medium was aspirated from each well and the IL-17α+ TNFα+ compound solution was added to each well for incubation (6 hours). The culture media was then removed and transferred to a clean tube (1.5 mL) at −80° C. until the ELISA test was performed. The presence of IL-6 in the cell media was determined using an IL-6 human Duoset ELISA kit (Fisher Scientific, Ottawa, On.) according to the manufacturer's instructions. Standards and samples were prepared and assessed in duplicate. Two separate replicates were performed for each sample. The absorbance was measured at 450 nm and 540 nm using a TECAN infinite M1000 plate reader.
(An ELISA detects its analyte on a solid surface through an enzyme-linked reagent.)

Values joined by “and” are separate entries in the source; they are usually repeats but may differ in a detail not shown here. Identical values can stand only once.

For orientation: GI50 means the concentration giving 50% growth inhibition. Low readings indicate more potent growth inhibition, high ones less potent growth inhibition. Usually IC50 stands for the concentration that gives 50% inhibition. The term melting point denotes the temperature, or range, at which the solid turns liquid. `O=C(Nc1ccc(C2CCCCC2)cc1)NC1CCCC1` [Compound 58, 1-(4-Cyclohexylphenyl)-3-cyclopentylurea] registered a melting point of 197 to 199 °C. In data set [1], this compound yielded a GI50 of 82 µM and an IC50 of 82 µM. Moreover, in data set [2], the “Cell cycle progression G0-G1” value is 50.1, the “Cell cycle progression G2-M” value was found to be 25.2, the “Cell cycle progression S” value was 24.7 and the “effect on cell cycle progression” value was “did not affect the cell cycle progression”. Moreover, in data set [3], the GI50 was 11 µM and the IC50 is 11 µM. In data set [4], the GI50 came out at 13 µM and the IC50 was determined as 13 µM. In data set [5], this compound registered a GI50 of 56 µM and an IC50 of 56 µM. In data set [6], the “Expression of IL-6, HaCaT” value turned out to be 50.3 ± 4.7 pg/mL and the “inhibitory effect on IL-6 expression in HaCaT cells” value (“inhibitory effect” for short) is “significant inhibitory effect”.

Turning to `CCNC(=O)Nc1ccc(C(C)(C)C)cc1` [Compound 63, 1-(4-(t-Butyl)phenyl)-3-ethylurea], the melting point fell in the range of 136 to 139 °C. In data set [1], this compound had a GI50 greater than 100 µM and an IC50 of no less than 100 µM. Moreover, in data set [2] (listed as 3a), the “Cell cycle progression G0-G1” value was 44, the “Cell cycle progression G2-M” value came to 31 and the “Cell cycle progression S” value is reported as 25.1. In data set [3], this compound gave a GI50 of 69 µM and an IC50 of 69 µM. In addition, in data set [4], the 50% growth inhibitory concentration (GI50) is 75 µM and half-maximal inhibition (IC50) required 75 µM. In data set [5], this compound had a GI50 of 60 µM and an IC50 of 60 µM. In addition, the “Expression of IL-6, HaCaT” value in data set [6] is recorded as 81.9 ± 10.8 pg/mL.

In turn, `CC(C)(C)c1cccc(NC(=O)NCC2CCC2)c1` [Compound 47, 1-(3-(t-Butyl)phenyl)-3-(cyclobutylmethyl)urea] came in with a melting point of 126 to 127 °C. In data set [1], this compound displayed a GI50 of 39 µM and an IC50 of 39 µM. Moreover, in data set [2], the “Cell cycle progression G0-G1” value was 46.1, the “Cell cycle progression G2-M” value turned out to be 30.4 and the “Cell cycle progression S” value is on record as 23.5. For the same compound, in data set [3], the GI50 is 37 µM and the IC50 was 37 µM. In data set [4], this compound had a GI50 of 43 µM and an IC50 of 43 µM. Also, in data set [5], the GI50 came to 21 µM and half-maximal inhibition (IC50) was put at 21 µM. Also, in data set [6], the “Expression of IL-6, HaCaT” value worked out at 47.5 ± 3.3 pg/mL and the “inhibitory effect” value is “significant inhibitory effect”.

For `CC(C)(C)c1ccc(NC(=O)NC2CCCC2)cc1` [Compound 31, 1-(4-(t-Butyl)phenyl)-3-cyclopentylurea], the melting point is 218 to 223 °C and 219 to 221 °C. Moreover, in data set [1], the GI50 is greater than 100 µM and the IC50 is no less than 100 µM. For the same compound, in data set [2], the “Cell cycle progression G0-G1” value is on record as 48, the “Cell cycle progression G2-M” value is 25.8, the “Cell cycle progression S” value is 25.1 and the “effect on cell cycle progression” value is “did not affect the cell cycle progression”. In data set [3], this compound gave a GI50 of 83 µM and an IC50 of 83 µM. In data set [4], this compound displayed a GI50 greater than 100 µM and an IC50 of no less than 100 µM. Also, in data set [5], the GI50 was greater than 100 µM and the IC50 was no less than 100 µM. Besides, the “Expression of IL-6, HaCaT” value in data set [6] is on record as 127.5 ± 17.3 pg/mL.

Consider `O=C(NCC1CCC1)Nc1ccc(I)cc1` [Compound 23, 1-(Cyclobutylmethyl)-3-(4-iodophenyl)urea], for which the melting point was in the range of 159 to 160 °C. In addition, in data set [1], it took 62 µM to inhibit growth by half (GI50) and half-maximal inhibition (IC50) required 62 µM. In data set [2], the “Cell cycle progression G0-G1” value was 45, the “Cell cycle progression G2-M” value is reported as 29.4 and the “Cell cycle progression S” value was 25.6. In addition, in data set [3], the GI50 turned out to be 27 µM and the IC50 came out at 27 µM. For the same compound, in data set [4], it took 29 µM to inhibit growth by half (GI50) and the IC50 was found to be 29 µM. Further, in data set [5], it took 74 µM to inhibit growth by half (GI50) and the IC50 came to 74 µM. In addition, in data set [6], the “Expression of IL-6, HaCaT” value came to 33.9 ± 4.3 pg/mL and the “inhibitory effect” value is “significant inhibitory effect”.

As to `CC(C)Cc1ccc(C(C)C(=O)O)cc1` (centres unmarked) [Ibuprofen, reference compound], the GI50 in data set [1], in data set [3], in data set [4] and in data set [5] was greater than 100 µM each time. The “Cell cycle progression G0-G1” value in data set [2] was 57.9. For the same compound, the “Cell cycle progression G2-M” value in data set [2] was determined as 16.3. Besides, the “Cell cycle progression S” value in data set [2] is given as 25.6. Moreover, the “Expression of IL-6, HaCaT” value in data set [6] turned out to be 120.3 ± 18.6 pg/mL.

Turning to `CC(C)(C)c1ccc(NC(=O)NC2CC2)cc1` [Compound 27, 1-(4-(t-Butyl)phenyl)-3-cyclopropylurea], the melting point lay within 138 to 139 °C. In data set [1], this compound showed a GI50 greater than 100 µM and an IC50 of no less than 100 µM. For the same compound, in data set [3], the GI50 was greater than 100 µM and the IC50 was no less than 100 µM. For the same compound, in data set [4], the GI50 was 85 µM and the IC50 was 85 µM. Also, in data set [5], halving of growth (GI50) required 55 µM and the IC50 turned out to be 55 µM. In addition, in data set [6], the “Expression of IL-6, HaCaT” value was 91.9 ± 7.6 pg/mL.

`COc1cc(/C=C/C(=O)CC(=O)/C=C/c2ccc(O)c(OC)c2)ccc1O` [Curcumin, reference compound] returned a GI50 in data set [1] of 7 µM. Moreover, in data set [2], the “Cell cycle progression G0-G1” value was 14.8, the “Cell cycle progression G2-M” value is listed as 77.1, the “Cell cycle progression S” value amounted to 8.1 and the “effect on cell cycle progression” value is reported as “clearly arresting the cell cycle progression in the G2-M phase”. In addition, the concentration for 50% growth inhibition (GI50) in data set [3] stood at 9.9 µM. The same compound registered a GI50 in data set [4] of 4.2 µM. Besides, the GI50 in data set [5] stood at 7.6 µM. For the same compound, the “Expression of IL-6, HaCaT” value in data set [6] stood at 62.8 ± 12.0 pg/mL.

Turning to `CC(C)(C)c1ccc(NC(=O)NCC2CCC2)cc1` [Compound 30, 1-(4-(t-Butyl)phenyl)-3-(cyclobutylmethyl)urea], the melting point was 179 to 184 °C. In addition, in data set [1], the GI50 was found to be 35 µM and the IC50 was found to be 35 µM. In data set [3], this compound showed a GI50 greater than 100 µM and an IC50 of no less than 100 µM. In addition, in data set [4], the GI50 is 21 µM and the IC50 was 21 µM. In addition, in data set [5], it took 8.2 µM to inhibit growth by half (GI50) and the IC50 worked out at 8.2 µM. Also, the “Expression of IL-6, HaCaT” value in data set [6] is recorded as 70.6 ± 7.6 pg/mL.
